# Measured values published in patent publication US20060069132A1, “Azolecarboxamide herbicides” (priority 2004, published 2006).
# Legend:
# [1] = test system: rice; assay: Test B flooded paddy test; type: in vivo, Oryza sativa; conditions: 1000 g ai/ha, scale 0 to 100 (0 no effect, 100 complete control)
# In short: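 Postemergence plants were sprayed with formulated test chemicals at 2 to 18 cm height (1- to 4-leaf stage); paddy species were grown to the 2-leaf stage. After 13 to 15 days in a greenhouse, injury was rated visually against untreated controls on a 0–100 scale (0 = no effect, 100 = complete control).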
# [2] = test system: Surinam grass; assay: Test B pre-/postemergence herbicide test; type: in vivo, Urochloa decumbens; conditions: for Surinam Grass plant response rating: postemergence
# In short: (§1)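 Response was scored visually 13 to 15 days after treatment against untreated greenhouse controls, 0 meaning no effect and 100 complete control. Formulations (solvent mixture plus surfactant) went onto soil after planting, onto foliage of 1- to 4-leaf plants, and onto 2-leaf plants in a flooded paddy set including rice and barnyardgrass.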
# [3] = test system: velvetleaf; assay: Test B pre-/postemergence herbicide test; type: in vivo, Abutilon theophrasti; conditions: for Velvetleaf plant response rating: postemergence
# In short: as §1
# [4] = test system: barnyardgrass; assay: Test B flooded paddy test; type: in vivo, Echinochloa crus-galli; conditions: 1000 g ai/ha, scale 0 to 100 (0 no effect, 100 complete control)
# In short: (§2)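 Read-out: visual comparison with controls, scored 0 to 100, where 100 means complete control and 0 no effect. Formulated chemicals were applied postemergence to plants 2–18 cm tall (1- to 4-leaf), or to flooded-paddy plants at the 2-leaf stage, then held 13 to 15 days under glass.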
# [5] = test system: morningglory; assay: Test B pre-/postemergence herbicide test; type: in vivo, Ipomoea coccinea; conditions: for Morningglory plant response rating: postemergence
# In short: (§3)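 Pre: seeds sown, then sprayed. Post: 1–4-leaf plants (2–18 cm) sprayed at the same time. Paddy: flooded, treated at 2-leaf stage. Formulation: non-phytotoxic solvent with surfactant. Greenhouse 13–15 days; visual 0–100 score relative to controls.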
# [6] = test system: small flower umbrella sedge; assay: Test B flooded paddy test; type: in vivo, Cyperus difformis; conditions: 1000 g ai/ha, scale 0 to 100 (0 no effect, 100 complete control)
# In short: as §2
# [7] = test system: blackgrass; assay: Test B postemergence herbicide test; type: in vivo, Alopecurus myosuroides; conditions: postemergence
# In short: as §2
# [8] = test system: wild oat; assay: Test B postemergence herbicide test; type: in vivo, Avena fatua; conditions: postemergence
# In short: (§4)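 Greenhouse test; postemergence application to plants at 1–4 leaves (2–18 cm); paddy species at 2 leaves; evaluated visually vs controls at 13–15 days; scale 0–100 (100 = complete control).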
# [9] = test system: corn; assay: Test B pre-/postemergence herbicide test; type: in vivo, Zea mays; conditions: for Corn plant response rating: postemergence
# In short: as §1
# [10] = test system: giant foxtail; assay: Test B pre-/postemergence herbicide test; type: in vivo, Setaria faberi; conditions: for Foxtail, Giant plant response rating: postemergence
# In short: as §1
# [11] = test system: large crabgrass; assay: Test B pre-/postemergence herbicide test; type: in vivo, Digitaria sanguinalis; conditions: for Crabgrass, Large plant response rating: postemergence
# In short: as §1
# [12] = test system: pigweed; assay: Test B pre-/postemergence herbicide test; type: in vivo, Amaranthus retroflexus; conditions: for Pigweed plant response rating: postemergence
# In short: as §1
# [13] = test system: barnyardgrass; assay: Test B pre-/postemergence herbicide test; type: in vivo, Echinochloa crus-galli; conditions: for Barnyardgrass plant response rating: postemergence
# In short: as §3
# [14] = test system: ducksalad; assay: Test B flooded paddy test; type: in vivo, Heteranthera limosa; conditions: 1000 g ai/ha, scale 0 to 100 (0 no effect, 100 complete control)
# In short: as §2
# [15] = test system: wheat; assay: Test B postemergence herbicide test; type: in vivo, Triticum aestivum; set-up: key to Wheat plant response rating: 0 = no effect, 100 = complete control; conditions: postemergence
# In short: as §4
# [16] = 125 g ai/ha, 0 = no effect, 100 = complete control, preemergence
# [17] = 125 g ai/ha, visual rating, scale 0 (no effect) to 100 (complete control)
# [18] = 500 g ai/ha, visual rating, 0 = no effect, 100 = complete control, preemergence
# [19] = 500 g ai/ha, scale 0 to 100, 0 is no effect, 100 is complete control
structure (smiles),measurement,setting,value
CCOC(=O)c1ccc(F)c(NC(=O)c2cc(C3(C)CC3)nn2CC)c1 [Compound 296],Rice plant response rating,[1],60
same,Surinam Grass plant response rating (0 to 100 scale),[2]; [16],20
same,Surinam Grass plant response rating,[2]; [17],40
same,"Plant response rating, Surinam Grass",[2]; [18],60
same,Surinam Grass plant response rating,[2]; [19],50
same,Velvetleaf plant response rating,[3]; [17],90
same,"Plant response rating, Velvetleaf",[3]; [18],80
same,Velvetleaf plant response rating,[3]; [19],100
same,Barnyardgrass plant response rating,[4],80
same,Morningglory plant response rating (0 to 100 scale),[5]; [16],10
same,Morningglory plant response rating,[5]; [17],50
same,"Plant response rating, Morningglory",[5]; [18],20
same,Morningglory plant response rating,[5]; [19],80
same,"Sedge, Umbrella plant response rating",[6],80
same,Blackgrass plant response rating,[7]; [17],30
same,Blackgrass plant response rating,[7]; [19],40
same,"Oat, Wild plant response rating",[8]; [17],30
same,"Oat, Wild plant response rating",[8]; [19],40
same,Corn plant response rating (0 to 100 scale),[9]; [16],30
same,Corn plant response rating,[9]; [17],30
same,"Plant response rating, Corn",[9]; [18],40
same,Corn plant response rating,[9]; [19],70
same,"Foxtail, Giant plant response rating (0 to 100 scale)",[10]; [16],70
same,"Foxtail, Giant plant response rating",[10]; [17],60
same,"Plant response rating, Foxtail, Giant",[10]; [18],90
same,"Foxtail, Giant plant response rating",[10]; [19],60
same,"Crabgrass, Large plant response rating (0 to 100 scale)",[11]; [16],40
same,"Crabgrass, Large plant response rating",[11]; [17],30
same,"Plant response rating, Crabgrass, Large",[11]; [18],100
same,"Crabgrass, Large plant response rating",[11]; [19],60
same,Pigweed plant response rating (0 to 100 scale),[12]; [16],70
same,Pigweed plant response rating,[12]; [17],80
same,"Plant response rating, Pigweed",[12]; [18],80
same,Pigweed plant response rating,[12]; [19],100
same,Barnyardgrass plant response rating (0 to 100 scale),[13]; [16],30
same,Barnyardgrass plant response rating,[13]; [17],30
same,"Plant response rating, Barnyardgrass",[13]; [18],60
same,Barnyardgrass plant response rating,[13]; [19],80
same,Ducksalad plant response rating,[14],80
same,Wheat plant response rating,[15]; [17],20
same,Wheat plant response rating,[15]; [19],30
